Reference: patent publication US6159994A, “Histamine H3 receptor ligands” (James Black Foundation, priority 1997, dated 2000)

What was measured:
[1] = target: T1, histamine H3 receptor (Cavia porcellus, UniProt Q9JI35); assay: Guinea pig ileal longitudinal muscle, myenteric plexus functional assay (antagonism of R-(α)-methylhistamine inhibition of electrically-stimulated contraction); format: cell-based; details: guinea pig ileum; antagonist affinity from rightward shift of R-(α)-methylhistamine E/[A] curves (Schild); typical variance ±0.15 log units; read-out: pKB (functional assay) - ileum (converted)
T1 construct: the longitudinal muscle layer and adhering myenteric plexus was teased away; from tissue; host or cells: guinea pig ileum longitudinal muscle with adhering myenteric plexus (intact tissue strips)
Experimental: The biological activity of the compounds of the examples was measured using the ileal longitudinal muscle, myenteric plexus assay described by Paton and Aboo Zar (J. Physiol. 1968, 194, 13-33). Male Dunkin-Hartley guinea pigs (250-300 g) were employed. Briefly, a 50 cm portion of ileum proximal to the caecum was removed, after discarding the terminal 20 cm. Ileal segments (3 cm) were cleaned by passing Krebs-Henseleit buffer containing 3 μM mepyramine gently through the ileum using a Pasteur pipette (size: 13.8 cm length, 0.65 cm diameter). To avoid unnecessary damage to the tissue, Krebs-Henseleit buffer was passed through the ileal segment, while it was lying horizontally on a petri dish. Therefore, the ileum was not over-distended and the buffer flowed through with ease. Each segment was then passed over a Pasteur pipette and the longitudinal muscle layer and adhering myenteric plexus was teased away using moist cotton wool, by stroking tangentially away from the mesenteric attachment. The tissues were suspended in 20 ml organ baths containing Krebs-Henseleit buffer at 37±1° C. and gassed with […]. The tissues were ligated to two parallel stainless steel wires, situated between two platinum electrodes (0.76 cm length, 0.06 cm diameter). All measurements were recorded isometrically (Grass FTO3 transducer). Following an initial loading tension of 1 g, the tissues were stimulated with electrical pulses at a frequency of 0.1 lHz and a pulse duration of 0.5 msec, as described by Kosterlitz & Watt (Br. J. Pharmacol. 1968, 266-276). Initially, the tissues were stimulated at supramaximal (1.3 fold times maximal) voltage for a period of 30 min and then the tissues were washed and re-stimulated.A "sighter dose" of the selective histamine H3 -receptor agonist, R-(α)-methylhistamine (0.3 μM) (Arrang el al. Nature, 1987, 117-123), was administered. Upon generation of response, the "sighter dose" was removed from the tissues by "washout" (6 washes over 60 min) and during this period the electrical stimulation was switched off. The tissues were then re-stimulated and allowed to stabilise prior to the addition of drug treatments, which were allocated on a randomised block basis to the organ baths. Following the incubation period, a single cumulative E/[A] curve was obtained. The experimental E/[A] curve data was expressed as the percentage inhibition of the peak height of electrically-stimulated contraction. Antagonist affinity values were calculated from the degree of rightward shift of the R-(α)-methylhistamine E/[A] curves using Schild's methods (Arunlakshana & Schild Br. J. Pharmacol, 1959, 48-58). Typical variance in this assay is ±0.15 log units.

[2] = target: T2, Histamine H3 receptor (guinea pig cortex membranes) (Cavia porcellus, UniProt Q9JI35); assay: Histamine H3 radioligand binding assay - guinea pig cortex; details: [3H]-R-α-methylhistamine 0.1 nM final, typical variance ±0.12 log units, read-out: pKI (binding assay) - cortex (converted)
T2 construct: The cortex was dissected, weighed and homogenised; from tissue; host or cells: guinea pig cerebral cortex membranes
Experimental: (§1) Data are analysed using GraphPad prism and the general equation for a competition curve with variable Hill slope (nH). [formula] where
(§2) X is the log concentration of competing compound,
(§3) Y is the binding obtained at each concentration of X,
(§4) pIC50 is the […] required to compete for half of the specific binding.
The IC50 is converted to the KI using the Cheng Prusoff equation,
IC50 is the concentration of competitor required to compete for half the specific binding,
L is the radioligand concentration used,
KD is the equilibrium dissociation constant for the radioligand determined by saturation experiments.
Histamine H3 radioligand binding assay--guinea pig cortex
Male Dunkin Hartley guinea pigs (200-300 g) were used. The whole brain was removed and immediately placed in ice-cold 20 mM Hepes-NaOH buffer (pH7.4 at 21±3° C.). The cortex was dissected, weighed and homogenised in ice-cold 20 mM Hepes-NaOH buffer (pH7.4 at 21±3° C.) (50 ml/guinea-pig cortex) using a polytron (Kinematica AG; PT-DA 3020/2TS, 3×3s). The homogenate was centrifuged at 100×g for 5 min and the supernatants pooled and stored at 4° C. The pellets were rehomogenised in fresh ice-cold buffer (80 ml) and recentrifuged (100×g for 5 min). The supernatants were pooled and pellets rehomogenised and recentrifuged (100×g for 5 min). All supernatants were pooled and centrifuged at 39,800×g for 12 min at 4° C. The final pellet was resuspended in 20 mM Hepes-NaOH buffer (pH7.4 at 21±3° C.) to a tissue concentration of 7.5 mg.ml^-1, using a teflon-in-glass homogeniser.
These were essentially identical to those used for the guinea pig ileum myenteric plexus assay described above, except that the final assay concentration of [^3 H]-R-α-methylhistamine was 0.1 nM. Typical variance in this assay is ±0.12 log units.

[3] = target: T3, Histamine H3 receptor (guinea pig ileum longitudinal muscle myenteric plexus membranes) (Cavia porcellus, UniProt Q9JI35); assay: Histamine H3 radioligand binding assay - guinea pig ileum; details: [3H]-R-α-methylhistamine (50 μl; 3 nM), 165 min, 21±3° C., pH7.4, typical variance ±0.12 log units, read-out: pKI (binding assay) - ileum (converted)
T3 construct: Guinea pig ileum longitudinal muscle myenteric plexus membranes; from tissue; host or cells: guinea pig ileum longitudinal muscle myenteric plexus membranes
Experimental: Histamine H3 radioligand binding assay--guinea pig ileum
Male Dunkin Hartley guinea pigs (200-300 g) were used. The small intestine was rapidly removed (cut ^- 5 cm from caecum and 5 cm from stomach) and placed in ice-cold 20 mM Hepes-NaOH buffer (pH7.4 at 21±3° C.). The tissue was cut into ^- 10 cm segments, flushed through with ice-cold 20 mM Hepes-NaOH buffer and placed in a beaker containing fresh buffer at 4° C. 10 cm segments of ileum were threaded onto a glass pipette and the longitudinal muscle myenteric plexus was peeled away from the circular muscle using damp cotton-wool. Longitudinal muscle myenteric plexus was immediately placed in ice-cold Viaspan® solution (^~ 100 ml for tissue from 3 guinea pigs) and placed in the refrigerator for 24 hours.
Pre-soaked tissue was weighed and minced with scissors. The tissue was then homogenised in Viaspan® using a polytron (Kinematica AG; PT-DA 3020/2TS, 3×^- 1-2s). 50 ml of 500 mM Tris HCl (pH6.9 at 21±3° C.) was added to the tissue and the mixture centrifuged at 39,800×g for 12 min at 4° C. The supernatant was discarded and rehomogenised in 100 ml ice-cold 20 mM Hepes-NaOH buffer (pH7.4 at 21±3° C.) using a teflon-in-glass homogeniser (setting 10; 3×). The homogenate was recentrifuged at 39,800×g and the pellet resuspended in 20 mM Hepes-NaOH buffer (pH7.4 at 21±3° C.), to a tissue concentration of 50 mg.ml^-1, using a polytron (Brinkman, PT10, 3×^~1 s).
Guinea pig ileum longitudinal muscle myenteric plexus membranes (400 μl) were incubated for 165 min at 21±3° C. in a final volume of 500 μl with 20 mM Hepes-NaOH buffer containing [^3 H]-R-α-methylhistamine (50 μl; 3 nM) and competing compound. Total and non-specific binding of [^3 H]-R-α-methylhistamine were defined using 50 μl of buffer and 50 μl of 10 μM thioperamide, respectively. The assay was terminated by rapid filtration through Whatman GF/B filters, presoaked (2 hr) in 0.1% polyethyleneimine, using a Brandell Cell Harvester. The filters were washed (3×3 ml) with ice-cold 50 mM Tris-HCl (pH6.9 at 21±3° C.), transferred into scintillation vials, 5 ml liquid scintillation cocktail was added and after 4 hours the bound radioactivity was determined by counting (4 min) in a Beckman liquid scintillation counter.
as §1, §2, §3, §4
The IC50 is converted to the KI using the Cheng Prusoff equation, […]
KD is the equilibrium dissociation constant for the radioligand determined by saturation experiments. […]

T3 sequence (Q9JI35 whole entry): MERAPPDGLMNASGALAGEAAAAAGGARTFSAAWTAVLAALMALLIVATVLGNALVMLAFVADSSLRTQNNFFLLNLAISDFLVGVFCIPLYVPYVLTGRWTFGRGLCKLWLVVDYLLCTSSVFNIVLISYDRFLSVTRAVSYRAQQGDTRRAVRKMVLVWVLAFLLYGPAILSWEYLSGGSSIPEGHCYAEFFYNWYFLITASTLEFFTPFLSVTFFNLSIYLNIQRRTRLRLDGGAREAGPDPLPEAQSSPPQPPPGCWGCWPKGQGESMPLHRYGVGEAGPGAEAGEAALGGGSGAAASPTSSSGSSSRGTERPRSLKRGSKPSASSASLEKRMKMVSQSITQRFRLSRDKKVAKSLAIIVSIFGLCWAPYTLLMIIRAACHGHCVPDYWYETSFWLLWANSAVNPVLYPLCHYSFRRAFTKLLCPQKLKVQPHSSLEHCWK
T1 sequence (Q9JI35 whole entry): as above
T2 sequence (Q9JI35 whole entry): as above

Kb [1]	Ki [2]	Ki [3]	Compound
1780 nM	115 nM	–	O=C1CNS(=O)(=O)N1CCCc1c[nH]cn1 [Example 4, 2-(3-(4-imidazolyl)propyl)-1,2,5-thiadiazolidin-3-one-1,1-dioxide]
891 nM	43.7 nM	1660 nM	C[C@H]1CN(CCc2c[nH]cn2)[S+]([O-])N1 (stereo partly drawn) [Example 6, 2-(4-imidazolyl)ethyl-4(S)-methyl-1,2,5-thiadiazolidine-1-oxide]
240 nM	4170 nM	–	O=S1(=O)NCCN1CCc1c[nH]cn1 [Example 2, 2-(2-(4-imidazolyl)ethyl)-1,2,5-thiadiazolidine-1,1-dioxide]
> 10000 nM	6310 nM	2950 nM	O=S1(=O)N(CCCc2c[nH]cn2)CCN1Cc1ccccc1 [Example 5, 5-benzyl-2-(3-(4-imidazolyl)propyl)-1,2,5-thiadiazolidine-1,1-dioxide]
123 nM	46.8 nM	42.7 nM	O=S1(=O)NC(Cc2ccc(Cl)cc2)CN1CCCCCc1c[nH]cn1 (centres unmarked) [Example 1, 4-(4-chlorophenyl)methyl-2-(5-(4-imidazolyl)pentyl)-1,2,5-thiadiazolidine-1,1-dioxide]
355 nM	2.57 nM	13.5 nM	O=S1(=O)NCCN1CCCc1c[nH]cn1 [Example 3, 2-(3-(4-imidazolyl)propyl)-1,2,5-thiadiazolidine-1,1-dioxide]
2400 nM	501 nM	–	O=C1CNS(=O)(=O)N1CCCCc1c[nH]cn1 [Example 8, 2-(4-(4-imidazolyl)butyl)-1,2,5-thiadiazolidin-3-one-1,1-dioxide]
44.7 nM	0.513 nM	–	O=C1C(Cc2ccc(Cl)cc2)NS(=O)(=O)N1CCCCc1c[nH]cn1 (centres unmarked) [Example 7, 2-(4-(4-imidazolyl)butyl)-4-(4-chlorophenyl)methyl-1,2,5-thiadiazolidin-3-one-1,1-dioxide]
